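Exposure lasted 48 hours, with cells grown in 96-well plates and compounds tested at five concentrations. At the GI50, growth is halved. Definition used: TGI = concentration required for complete inhibition of growth.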 Residues, ends and D or L forms follow the SMILES beside them. *: point of attachment. Cbz = O=C(OCc1ccccc1)*
Columns and labels:
Assay in all cases: DTP human tumour cell line panel, 48 h
NCI-H522 lung = test system: NCI-H522 lung
HOP-92 NSCLC = test system: HOP-92 NSCLC
SK-MEL-28 melanoma = test system: SK-MEL-28 melanoma
OVCAR-3 ovarian = test system: OVCAR-3 ovarian
ACHN renal = test system: ACHN renal
NCI-H23 lung = test system: NCI-H23 lung
786-0 renal = test system: 786-0 renal
HCT-116 colon = test system: HCT-116 colon
SK-MEL-2 melanoma = test system: SK-MEL-2 melanoma
SNB-19 CNS = test system: SNB-19 CNS
CCRF-CEM leukemia = test system: CCRF-CEM leukemia
PC-3 prostate = test system: PC-3 prostate
MDA-MB-231 breast = test system: MDA-MB-231 breast
HCC-2998 colon = test system: HCC-2998 colon
SK-MEL-5 melanoma = test system: SK-MEL-5 melanoma
TK-10 renal = test system: TK-10 renal
SF-295 CNS = test system: SF-295 CNS
BT-549 breast = test system: BT-549 breast
HS 578T breast = test system: HS 578T breast
OVCAR-8 ovarian = test system: OVCAR-8 ovarian
UACC-257 melanoma = test system: UACC-257 melanoma
RXF 393 renal = test system: RXF 393 renal
MOLT-4 leukemia = test system: MOLT-4 leukemia
SF-268 CNS = test system: SF-268 CNS
OVCAR-5 ovarian = test system: OVCAR-5 ovarian
SF-539 CNS = test system: SF-539 CNS
IGROV1 ovarian = test system: IGROV1 ovarian
NCI/ADR-RES ovarian = test system: NCI/ADR-RES ovarian
M14 melanoma = test system: M14 melanoma
A498 renal = test system: A498 renal
SK-OV-3 ovarian = test system: SK-OV-3 ovarian
T-47D breast = test system: T-47D breast
UACC-62 melanoma = test system: UACC-62 melanoma
NCI-H460 lung = test system: NCI-H460 lung
SW-620 colon = test system: SW-620 colon
A549 NSCLC = test system: A549 NSCLC
HCT-15 colon = test system: HCT-15 colon
UO-31 renal = test system: UO-31 renal
SR leukemia = test system: SR leukemia
U251 CNS = test system: U251 CNS
COLO 205 colon = test system: COLO 205 colon
KM12 colon = test system: KM12 colon
LOX IMVI melanoma = test system: LOX IMVI melanoma
RPMI-8226 leukemia = test system: RPMI-8226 leukemia
HT29 colon = test system: HT29 colon
HL-60(TB) leukemia = test system: HL-60(TB) leukemia
DU-145 prostate = test system: DU-145 prostate
SN12C renal = test system: SN12C renal
K-562 leukemia = test system: K-562 leukemia
EKVX NSCLC = test system: EKVX NSCLC
MCF7 breast = test system: MCF7 breast

Molecule `CC(C)C[C@@H](C=O)NC(=O)[C@H](CC(C)C)NC(=O)[C@H](CC(C)C)NC(=O)OCc1ccccc1` (Cbz-Leu-Leu-Leu-aldehyde) has a GI50 (NCI-H522 lung) of 212 nM, a TGI (NCI-H522 lung) of 614 nM and a GI50 (HOP-92 NSCLC) of 319 nM. It also gave a TGI (HOP-92 NSCLC) of 797 nM, a GI50 (SK-MEL-28 melanoma) of 419 nM and a TGI (SK-MEL-28 melanoma) of 11600 nM. The GI50 (OVCAR-3 ovarian) was 225 nM, the TGI (OVCAR-3 ovarian) was 538 nM and the GI50 (ACHN renal) was 357 nM. For the same molecule, the TGI (ACHN renal) was 1980 nM, the GI50 (NCI-H23 lung) was 422 nM and the TGI (NCI-H23 lung) was 2990 nM. The GI50 (786-0 renal) was 349 nM, the TGI (786-0 renal) was 1400 nM and the GI50 (HCT-116 colon) was 294 nM. It also gave a TGI (HCT-116 colon) of 1040 nM, a GI50 (SK-MEL-2 melanoma) of 483 nM and a TGI (SK-MEL-2 melanoma) of 3280 nM. The GI50 (SNB-19 CNS) was 829 nM, the TGI (SNB-19 CNS) was greater than 100000 nM and the GI50 (CCRF-CEM leukemia) was 378 nM. It also gave a TGI (CCRF-CEM leukemia) of 64200 nM, a GI50 (PC-3 prostate) of 479 nM and a TGI (PC-3 prostate) of 2910 nM. It also gave a GI50 (MDA-MB-231 breast) of 328 nM, a TGI (MDA-MB-231 breast) of 1210 nM and a GI50 (HCC-2998 colon) of 240 nM. For the same molecule, the TGI (HCC-2998 colon) was 631 nM, the GI50 (SK-MEL-5 melanoma) was 349 nM and the TGI (SK-MEL-5 melanoma) was 1080 nM. The GI50 (TK-10 renal) was 270 nM, the TGI (TK-10 renal) was 893 nM and the GI50 (SF-295 CNS) was 390 nM. The TGI (SF-295 CNS) was 1770 nM, the GI50 (BT-549 breast) was 337 nM and the TGI (BT-549 breast) was 1250 nM. For the same molecule, the GI50 (HS 578T breast) was 437 nM, the TGI (HS 578T breast) was greater than 100000 nM and the GI50 (OVCAR-8 ovarian) was 523 nM. It also gave a TGI (OVCAR-8 ovarian) of 4660 nM, a GI50 (UACC-257 melanoma) of 251 nM and a TGI (UACC-257 melanoma) of 628 nM. It also gave a GI50 (RXF 393 renal) of 199 nM, a TGI (RXF 393 renal) of 371 nM and a GI50 (MOLT-4 leukemia) of 322 nM. For the same molecule, the TGI (MOLT-4 leukemia) was 11900 nM, the GI50 (SF-268 CNS) was 297 nM and the TGI (SF-268 CNS) was 1450 nM. It also gave a GI50 (OVCAR-5 ovarian) of 643 nM, a TGI (OVCAR-5 ovarian) of 4740 nM and a GI50 (SF-539 CNS) of 256 nM. The TGI (SF-539 CNS) was 703 nM, the GI50 (IGROV1 ovarian) was 444 nM and the TGI (IGROV1 ovarian) was 3080 nM. The GI50 (NCI/ADR-RES ovarian) was 3260 nM, the TGI (NCI/ADR-RES ovarian) was greater than 100000 nM and the GI50 (M14 melanoma) was 338 nM. For the same molecule, the TGI (M14 melanoma) was 1740 nM, the GI50 (A498 renal) was 424 nM and the TGI (A498 renal) was 2220 nM. For the same molecule, the GI50 (SK-OV-3 ovarian) was 614 nM, the TGI (SK-OV-3 ovarian) was 5340 nM and the GI50 (T-47D breast) was 222 nM. It also gave a TGI (T-47D breast) of 598 nM, a GI50 (UACC-62 melanoma) of 235 nM and a TGI (UACC-62 melanoma) of 548 nM. For the same molecule, the GI50 (NCI-H460 lung) was 455 nM, the TGI (NCI-H460 lung) was 2020 nM and the GI50 (SW-620 colon) was 355 nM. It also gave a TGI (SW-620 colon) of 2070 nM, a GI50 (A549 NSCLC) of 578 nM and a TGI (A549 NSCLC) of 12800 nM. The GI50 (HCT-15 colon) was 465 nM, the TGI (HCT-15 colon) was 10200 nM and the GI50 (UO-31 renal) was 252 nM. It also gave a TGI (UO-31 renal) of 943 nM, a GI50 (SR leukemia) of 366 nM and a TGI (SR leukemia) of 86600 nM. The GI50 (U251 CNS) was 332 nM, the TGI (U251 CNS) was 1070 nM and the GI50 (COLO 205 colon) was 404 nM. It also gave a TGI (COLO 205 colon) of 1620 nM, a GI50 (KM12 colon) of 281 nM and a TGI (KM12 colon) of 751 nM. The GI50 (LOX IMVI melanoma) was 206 nM, the TGI (LOX IMVI melanoma) was 460 nM and the GI50 (RPMI-8226 leukemia) was 356 nM. It also gave a TGI (RPMI-8226 leukemia) of 13800 nM, a GI50 (HT29 colon) of 268 nM and a TGI (HT29 colon) of 647 nM. The GI50 (HL-60(TB) leukemia) was 330 nM, the TGI (HL-60(TB) leukemia) was 1890 nM and the GI50 (DU-145 prostate) was 530 nM. The TGI (DU-145 prostate) was 10600 nM, the GI50 (SN12C renal) was 315 nM and the TGI (SN12C renal) was 1010 nM. The GI50 (K-562 leukemia) was 368 nM, the TGI (K-562 leukemia) was greater than 100000 nM and the GI50 (EKVX NSCLC) was 682 nM. The TGI (EKVX NSCLC) was greater than 100000 nM, the GI50 (MCF7 breast) was 422 nM and the TGI (MCF7 breast) was 14000 nM.
